Results as given in ChEMBL document CHEMBL1147613, “A series of spirocyclic analogues as potent inhibitors of bacterial phenylalanyl-tRNA synthetases” (Bioorg Med Chem Lett, 2004).

Biological target: T1, Phenylalanine--tRNA ligase, mitochondrial (Homo sapiens, UniProt O95363)
T1 sequence (O95363 whole entry): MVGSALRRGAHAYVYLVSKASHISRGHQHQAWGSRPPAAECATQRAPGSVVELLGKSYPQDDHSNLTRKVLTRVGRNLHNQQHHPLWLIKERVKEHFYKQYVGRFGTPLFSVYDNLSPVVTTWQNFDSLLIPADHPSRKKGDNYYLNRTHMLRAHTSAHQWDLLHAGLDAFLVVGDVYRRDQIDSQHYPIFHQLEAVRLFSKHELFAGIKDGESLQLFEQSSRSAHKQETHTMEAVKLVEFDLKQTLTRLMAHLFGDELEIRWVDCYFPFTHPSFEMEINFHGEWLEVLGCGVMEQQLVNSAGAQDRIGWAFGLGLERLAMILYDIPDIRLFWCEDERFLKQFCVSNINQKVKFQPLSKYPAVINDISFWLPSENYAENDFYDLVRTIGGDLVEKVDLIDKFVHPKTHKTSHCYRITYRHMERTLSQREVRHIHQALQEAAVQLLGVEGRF
Experiment: Inhibitory activity against human phenylalanyl-tRNA synthetase was determined

| Compound | IC50 [µM] |
| --- | --- |
| O=C(c1ccccc1)C1N[C@@H](c2ccccc2)[C@@H]2C(=O)N(c3ccc(Cl)c(Cl)c3)C(=O)[C@H]12 (some centres undefined) | > 100 |
| COc1ccccc1N1C(=O)C2C(c3ccccc3)OC3(C(=O)c4ccccc4C3=O)C2C1=O (centres undefined) | > 100 |
| O=C(c1ccccc1)C1N[C@@H](c2ccccc2)[C@H]2C(=O)N(c3ccc(Cl)c(Cl)c3)C(=O)[C@@H]12 (some centres undefined) | > 100 |
| COc1ccc(N2C(=O)[C@@H]3C(c4ccccc4)OC4(C(=O)c5ccccc5C4=O)[C@@H]3C2=O)cc1 (some centres undefined) | > 100 |
| O=C1[C@@H]2C(c3ccc(Cl)cc3)OC3(C(=O)c4ccccc4C3=O)[C@@H]2C(=O)N1c1ccc(Cl)c(C(F)(F)F)c1 (some centres undefined) | > 100 |
| Cc1ccc(N2C(=O)[C@H]3[C@@H](C2=O)C2(N[C@H]3c3ccccc3)C(=O)c3ccccc3C2=O)cc1Cl | > 100 |
| O=C1[C@@H]2C(c3ccccc3)OC3(C(=O)c4ccccc4C3=O)[C@@H]2C(=O)N1c1ccc([N+](=O)[O-])cc1 (some centres undefined) | > 100 |
| O=C1C2C(c3ccccc3)OC3(C(=O)c4ccccc4C3=O)C2C(=O)N1c1ccc2c(c1)OCO2 (centres undefined) | > 100 |
| COc1ccccc1N1C(=O)[C@@H]2C(c3ccccc3C)OC3(C(=O)c4ccccc4C3=O)[C@@H]2C1=O (some centres undefined) | > 100 |
| O=C1[C@H]2[C@H](c3ccccc3)NC3(Cc4ccccc4C3)[C@H]2C(=O)N1c1ccc(Cl)c(Cl)c1 | > 100 |
| Cc1ccc(N2C(=O)[C@H]3C(c4ccccc4)OC4(C(=O)c5ccccc5C4=O)[C@H]3C2=O)cc1Cl (some centres undefined) | > 100 |
| Cc1ccc(N2C(=O)[C@@H]3C(c4ccccc4)OC4(C(=O)c5ccccc5C4=O)[C@@H]3C2=O)cc1Cl (some centres undefined) | > 100 |
| O=C1[C@H]2[C@@H](C(=O)N1c1ccc(Cl)c(Cl)c1)C1(Cc3ccccc3C1)N[C@H]2c1ccccc1 | > 100 |
| Cc1ccc(C2OC3(C(=O)c4ccccc4C3=O)[C@@H]3C(=O)N(c4ccc5c(c4)OCO5)C(=O)[C@H]23)cc1 (some centres undefined) | > 100 |
| Cc1ccc(N2C(=O)[C@H]3[C@H](c4ccccc4)NC4(C(=O)c5ccccc5C4=O)[C@H]3C2=O)cc1Cl | > 100 |
| COC(=O)C1N[C@@H](c2ccccc2)[C@H]2C(=O)N(c3ccc(Cl)c(Cl)c3)C(=O)[C@@H]12 (some centres undefined) | > 100 |
| O=C1[C@H]2[C@@H](C(=O)N1c1ccc(Cl)c(Cl)c1)C1(N[C@H]2c2ccccc2)C(=O)c2ccccc2C1=O | > 100 |
| O=C1[C@H]2[C@H](c3ccccc3)NC3(C(=O)c4ccccc4C3=O)[C@H]2C(=O)N1c1ccc(Cl)c(Cl)c1 | > 100 |
| O=C1[C@@H]2C(c3ccccc3)OC3(C(=O)c4ccccc4C3=O)[C@@H]2C(=O)N1c1ccc(Cl)c(C(F)(F)F)c1 (some centres undefined) | > 100 |
